We go through 19 compounds from ChEMBL document CHEMBL1141418 (J Med Chem, 2007).

Test [1] is filed under the species Rattus norvegicus. Nature of the test: Vasopressor activity in rat. In kind it is functional.
The target of test [2] is T1, Oxytocin receptor (Homo sapiens) (UniProt P30559).
T1 sequence (whole entry): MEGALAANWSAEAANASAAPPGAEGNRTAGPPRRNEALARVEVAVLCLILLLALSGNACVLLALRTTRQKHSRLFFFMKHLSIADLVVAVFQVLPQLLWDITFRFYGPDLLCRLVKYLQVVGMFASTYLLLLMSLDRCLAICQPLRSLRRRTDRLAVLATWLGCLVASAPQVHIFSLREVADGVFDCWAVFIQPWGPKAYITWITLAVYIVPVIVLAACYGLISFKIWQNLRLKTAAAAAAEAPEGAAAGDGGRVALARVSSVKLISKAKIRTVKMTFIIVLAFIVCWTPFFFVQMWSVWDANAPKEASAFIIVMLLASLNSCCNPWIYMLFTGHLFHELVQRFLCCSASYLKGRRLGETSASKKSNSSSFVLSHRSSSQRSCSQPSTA
Nature of the test: Activity at OT receptor assessed as oxytocic activity in absence of magnesium. In kind it is functional. The conditions noted are these: filed as agonist.

Test [3] is filed under the species Rattus norvegicus. Nature of the test: Antidiuretic activity in rat. In kind it is functional, Urine.
The next test has as its target Vasopressin V2 receptor (Rattus norvegicus, UniProt Q00788). Nature of the test: Displacement of [3H]AVP from vasopressin V2 receptor in rat kidney membranes. In kind it is cell membranes, Membrane.
Another test has as its target Vasopressin V1a receptor (Rattus norvegicus, UniProt P30560). Nature of the test: Displacement of [3H]AVP from vasopressin V1a receptor in rat liver membrane. In kind it is cell membranes.
In another test the target is T2, Oxytocin receptor (Rattus norvegicus, UniProt P70536).
T2 sequence (P70536 whole entry): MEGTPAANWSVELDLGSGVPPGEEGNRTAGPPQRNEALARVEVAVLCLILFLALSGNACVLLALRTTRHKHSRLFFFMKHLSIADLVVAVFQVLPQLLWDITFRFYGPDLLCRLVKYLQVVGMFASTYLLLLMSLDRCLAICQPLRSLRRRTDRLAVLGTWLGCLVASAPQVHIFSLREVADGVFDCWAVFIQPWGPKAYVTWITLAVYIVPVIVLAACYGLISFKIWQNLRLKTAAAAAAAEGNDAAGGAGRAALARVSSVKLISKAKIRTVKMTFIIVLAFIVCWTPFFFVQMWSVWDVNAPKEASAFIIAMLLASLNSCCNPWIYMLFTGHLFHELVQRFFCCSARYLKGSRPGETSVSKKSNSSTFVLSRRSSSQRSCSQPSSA
Nature of the test: Displacement of [3H]AVP from rat OT receptor expressed in CHO cells. In kind it is cell-based. In general terms: Loss of bound radioactivity is the signal in a displacement assay; it reports binding, not function.

Positions of bridges follow the written chain, without caps; N, C: chain ends. Non-standard residues stand in square brackets, D forms with d. Residues, ends and D or L forms follow the SMILES beside them. Orn = NCCC[C@H](N)C(=O)O; Dab = NCC[C@H](N)C(=O)O; Dap = NC[C@H](N)C(=O)O; Mpa = O=C(O)CCS Some results are limits rather than exact numbers.

Chain of Vasopressin V1a receptor (P30560 whole entry): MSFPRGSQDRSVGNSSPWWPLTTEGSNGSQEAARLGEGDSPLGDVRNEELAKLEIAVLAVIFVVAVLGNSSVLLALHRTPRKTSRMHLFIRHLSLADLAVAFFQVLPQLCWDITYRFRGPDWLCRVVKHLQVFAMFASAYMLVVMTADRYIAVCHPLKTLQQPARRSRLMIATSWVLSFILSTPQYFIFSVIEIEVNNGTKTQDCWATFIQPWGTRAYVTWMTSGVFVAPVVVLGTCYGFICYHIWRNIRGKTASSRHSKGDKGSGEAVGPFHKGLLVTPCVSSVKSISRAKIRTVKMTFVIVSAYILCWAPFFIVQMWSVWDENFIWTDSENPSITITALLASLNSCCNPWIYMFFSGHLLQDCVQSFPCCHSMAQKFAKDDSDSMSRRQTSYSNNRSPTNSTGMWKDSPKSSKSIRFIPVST
Chain of Vasopressin V2 receptor (Q00788 whole entry): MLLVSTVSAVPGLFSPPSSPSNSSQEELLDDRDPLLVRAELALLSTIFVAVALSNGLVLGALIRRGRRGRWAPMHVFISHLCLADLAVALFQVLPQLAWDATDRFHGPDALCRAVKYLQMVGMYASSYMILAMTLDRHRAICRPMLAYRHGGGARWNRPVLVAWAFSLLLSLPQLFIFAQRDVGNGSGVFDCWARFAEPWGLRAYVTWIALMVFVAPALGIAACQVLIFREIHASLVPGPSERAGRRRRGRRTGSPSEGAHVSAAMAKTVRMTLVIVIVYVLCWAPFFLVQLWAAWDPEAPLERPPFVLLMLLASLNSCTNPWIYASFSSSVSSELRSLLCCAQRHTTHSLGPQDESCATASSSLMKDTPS

Regarding `NCCCC[C@H](NC(=O)[C@@H]1CCCN1C(=O)[C@@H]1CSSCCC(=O)N[C@@H](Cc2ccc(O)cc2)C(=O)N[C@@H](Cc2ccccc2)C(=O)N[C@@H](CCC(N)=O)C(=O)N[C@@H](CC(N)=O)C(=O)N1)C(=O)NCC(N)=O`, the Activity in the test filed under Rattus norvegicus [1] is 145 U/mg; in test [2], 12 U/mg; in the test filed under Rattus norvegicus [3], 550 U/mg.
As for `NCCC[C@H](NC(=O)[C@@H]1CCCN1C(=O)[C@@H]1CSSCCC(=O)N[C@@H](Cc2ccc(O)cc2)C(=O)N[C@@H](Cc2ccccc2)C(=O)N[C@@H](CCC(N)=O)C(=O)N[C@@H](CC(N)=O)C(=O)N1)C(=O)NCC(N)=O`, the values for the Activity (in the test listed under Rattus norvegicus [1]; in test [2]; in the test listed under Rattus norvegicus [3]) were 355 U/mg, 15 U/mg and 486 U/mg, respectively.
On to `N=C(N)NCCC[C@H](NC(=O)[C@@H]1CCCN1C(=O)[C@@H]1CSSCCC(=O)N[C@H](Cc2cccnc2)C(=O)N[C@@H](Cc2ccccc2)C(=O)N[C@@H](CCC(N)=O)C(=O)N[C@@H](CC(N)=O)C(=O)N1)C(=O)NCC(N)=O`, for which the results for the Ki on Vasopressin V2 receptor and on Vasopressin V1a receptor were 69 nM (antagonist) and 450 nM (antagonist), respectively. Moreover, the Activity result was “Antagonist” in the test filed under Rattus norvegicus [1] (filed as antagonist) and 1 U/mg in the test listed under Rattus norvegicus [3].
On to `CC(C)C[C@@H]1NC(=O)[C@H](Cc2ccccc2)NC(=O)[C@H](Cc2ccc(O)cc2)NC(=O)CCSSC[C@@H](C(=O)N2CCC[C@H]2C(=O)N[C@@H](CCCN=C(N)N)C(=O)NCC(N)=O)NC(=O)[C@H](CC(N)=O)NC1=O` ([Mpa]YFLNCPRG-NH2; disulfide 1-6), for which the Ki (in general, a measure of affinity in units of concentration, obtained from inhibition or displacement) on Vasopressin V2 receptor was 3.1 nM (antagonist); at Vasopressin V1a receptor, 1250 nM (antagonist).
In the case of `CC(C)C[C@@H]1NC(=O)[C@H](Cc2ccccc2)NC(=O)[C@H](Cc2ccc(O)cc2)NC(=O)CCSSC[C@@H](C(=O)N2CCC[C@H]2C(=O)N[C@@H](CCCNC(=N)N)C(=O)NCC(N)=O)NC(=O)[C@H](CC(N)=O)NC1=O` ([Mpa]YFLNCPRG-NH2; disulfide 1-6), the results for the Activity (in the test filed under Rattus norvegicus [1]; in test [2]; in the test listed under Rattus norvegicus [3]) were 3.11 U/mg, 0.67 U/mg and 378 U/mg, respectively.
Take `CC(C)C[C@@H]1NC(=O)[C@H](Cc2ccccc2)NC(=O)[C@H](Cc2ccc(O)cc2)NC(=O)CCSSC[C@@H](C(=O)N2CCC[C@H]2C(=O)N[C@@H](CCN)C(=O)NCC(N)=O)NC(=O)[C@H](CC(N)=O)NC1=O` ([Mpa]YFLNCP[Dab]G-NH2; disulfide 1-6): the Ki at Vasopressin V2 receptor was 210 nM (antagonist); at Vasopressin V1a receptor, 1000 nM (antagonist); at Oxytocin receptor, 41 nM (antagonist). Moreover, the Activity in the test listed under Rattus norvegicus [1] was 3.5 U/mg; in test [2] it was 0.27 U/mg; in the test listed under Rattus norvegicus [3], 5.7 U/mg.
Regarding `CC(C)C[C@@H]1NC(=O)[C@H](Cc2ccccc2)NC(=O)[C@H](Cc2ccc(O)cc2)NC(=O)CCSSC[C@@H](C(=O)N2CCC[C@H]2C(=O)N[C@@H](CCCN)C(=O)NCC(N)=O)NC(=O)[C@H](CC(N)=O)NC1=O` ([Mpa]YFLNCP[Orn]G-NH2; disulfide 1-6), the Ki on Vasopressin V2 receptor is 425 nM (antagonist); at Vasopressin V1a receptor, 1400 nM (antagonist). Besides, the Activity in the test filed under Rattus norvegicus [1] came out at 3.1 U/mg; in the test listed under Rattus norvegicus [3], 5.7 U/mg.
Turning to `NCC[C@H](NC(=O)[C@@H]1CCCN1C(=O)[C@@H]1CSSCCC(=O)N[C@@H](Cc2ccc(O)cc2)C(=O)N[C@@H](Cc2ccccc2)C(=O)N[C@@H](CCC(N)=O)C(=O)N[C@@H](CC(N)=O)C(=O)N1)C(=O)NCC(N)=O` ([Mpa]YFQNCP[Dab]G-NH2; disulfide 1-6), the Activity in the test filed under Rattus norvegicus [1] was 385 U/mg; in test [2], 25 U/mg; in the test listed under Rattus norvegicus [3] it was 463 U/mg.
On to `NC[C@H](NC(=O)[C@@H]1CCCN1C(=O)[C@@H]1CSSCCC(=O)N[C@@H](Cc2ccc(O)cc2)C(=O)N[C@@H](Cc2ccccc2)C(=O)N[C@@H](CCC(N)=O)C(=O)N[C@@H](CC(N)=O)C(=O)N1)C(=O)NCC(N)=O` ([Mpa]YFQNCP[Dap]G-NH2; disulfide 1-6), for which the Activity in the test filed under Rattus norvegicus [1] was 8.7 U/mg; in test [2] it was 0.9 U/mg; in the test filed under Rattus norvegicus [3] it was 165 U/mg.
As for `N=C(N)NCCC[C@@H]1NC(=O)[C@H](Cc2ccccc2)NC(=O)[C@H](Cc2ccc(O)cc2)NC(=O)CCSSC[C@@H](C(=O)N2CCC[C@H]2C(=O)N[C@@H](CCCCN)C(=O)NCC(N)=O)NC(=O)[C@H](CC(N)=O)NC1=O` ([Mpa]YFRNCPKG-NH2; disulfide 1-6), the results for the Ki at Vasopressin V2 receptor, on Vasopressin V1a receptor and on Oxytocin receptor were 3.8 nM (antagonist), 130 nM (antagonist) and 125 nM (antagonist), respectively. For the same compound, the Activity in the test filed under Rattus norvegicus [1] is 83 U/mg; in test [2], 0.15 U/mg; in the test filed under Rattus norvegicus [3], 784 U/mg.
For `N=C(N)NCCC[C@@H]1NC(=O)[C@H](Cc2ccccc2)NC(=O)[C@H](Cc2ccc(O)cc2)NC(=O)CCSSC[C@@H](C(=O)N2CCC[C@H]2C(=O)N[C@@H](CCCN=C(N)N)C(=O)NCC(N)=O)NC(=O)[C@H](CC(N)=O)NC1=O` ([Mpa]YFRNCPRG-NH2; disulfide 1-6), the values for the Ki at Vasopressin V2 receptor and at Vasopressin V1a receptor were 0.2 nM (antagonist) and 12.9 nM (antagonist), respectively.
With `NC(=O)CNC(=O)[C@H](CCCN=C(N)N)NC(=O)[C@@H]1CCCN1C(=O)[C@@H]1CSSCCC(=O)N[C@@H](Cc2ccc(O)cc2)C(=O)N[C@@H](Cc2ccccc2)C(=O)N[C@@H](CCCN=C(N)N)C(=O)N[C@@H](CC(N)=O)C(=O)N1` ([Mpa]YFRNCPRG-NH2; disulfide 1-6), the Activity in the test filed under Rattus norvegicus [1] stood at 159.93 U/mg; in the test filed under Rattus norvegicus [3], 748.32 U/mg.
For `CC(C)[C@@H]1NC(=O)[C@H](Cc2ccccc2)NC(=O)[C@H](Cc2ccc(O)cc2)NC(=O)CCSSC[C@@H](C(=O)N2CCC[C@H]2C(=O)N[C@@H](CCCN=C(N)N)C(=O)NCC(N)=O)NC(=O)[C@H](CC(N)=O)NC1=O` ([Mpa]YFVNCPRG-NH2; disulfide 1-6), the values for the Ki on Vasopressin V2 receptor and on Vasopressin V1a receptor were 0.3 nM (antagonist) and 60 nM (antagonist), respectively.
With `CC(C)[C@@H]1NC(=O)[C@H](Cc2ccccc2)NC(=O)[C@H](Cc2ccc(O)cc2)NC(=O)CCSSC[C@@H](C(=O)N2CCC[C@H]2C(=O)N[C@@H](CCCNC(=N)N)C(=O)NCC(N)=O)NC(=O)[C@H](CC(N)=O)NC1=O` ([Mpa]YFVNCPRG-NH2; disulfide 1-6), the Activity was 51 U/mg in the test filed under Rattus norvegicus [1] and 1150 U/mg in the test listed under Rattus norvegicus [3].
On to `CC(C)[C@@H]1NC(=O)[C@H](Cc2ccccc2)NC(=O)[C@H](Cc2ccc(O)cc2)NC(=O)CCSSC[C@@H](C(=O)N2CCC[C@H]2C(=O)N[C@H](CCCNC(=N)N)C(=O)NCC(N)=O)NC(=O)[C@H](CC(N)=O)NC1=O` ([Mpa]YFVNCP[dR]G-NH2; disulfide 1-6), for which the Ki is listed as 0.26 nM (antagonist) at Vasopressin V2 receptor and 316 nM (antagonist) at Vasopressin V1a receptor. The Activity in the test filed under Rattus norvegicus [1] was less than 0.01 U/mg; in the test filed under Rattus norvegicus [3], 1230 U/mg.
On the same counts, the results for `NCCC[C@@H]1NC(=O)[C@H](Cc2ccccc2)NC(=O)[C@H](Cc2ccc(O)cc2)NC(=O)CCSSC[C@@H](C(=O)N2CCC[C@H]2C(=O)N[C@@H](CCCN=C(N)N)C(=O)NCC(N)=O)NC(=O)[C@H](CC(N)=O)NC1=O` ([Mpa]YF[Orn]NCPRG-NH2; disulfide 1-6) are 3.4 nM (antagonist), 900 nM (antagonist), 1.54 U/mg and 260.32 U/mg.
In the case of `N=C(N)NCCC[C@@H](NC(=O)[C@@H]1CCCN1C(=O)[C@@H]1CSSCCC(=O)N[C@@H](Cc2ccc(O)cc2)C(=O)N[C@@H](Cc2ccccc2)C(=O)N[C@@H](CCC(N)=O)C(=O)N[C@@H](CC(N)=O)C(=O)N1)C(=O)NCC(N)=O` (stereo in doubt; form 1) [DESMOPRESSIN], at Vasopressin V2 receptor, the Ki is 0.8 nM (antagonist). Moreover, the Activity in the test listed under Rattus norvegicus [1] is given as 346 U/mg; in the test filed under Rattus norvegicus [3], 1745 U/mg.
Take `N=C(N)NCCC[C@@H](NC(=O)[C@@H]1CCCN1C(=O)[C@@H]1CSSCCC(=O)N[C@@H](Cc2ccc(O)cc2)C(=O)N[C@@H](Cc2ccccc2)C(=O)N[C@@H](CCC(N)=O)C(=O)N[C@@H](CC(N)=O)C(=O)N1)C(=O)NCC(N)=O` (stereo in doubt; form 2) [DESMOPRESSIN]: at Vasopressin V2 receptor, the Ki was 0.3 nM (antagonist). Besides, the Activity in the test filed under Rattus norvegicus [1] is listed as 0.39 U/mg; in the test filed under Rattus norvegicus [3] it was 1200 U/mg.
In the case of `NC(=O)CC[C@@H]1NC(=O)[C@H](Cc2ccccc2)NC(=O)[C@H](Cc2ccc(O)cc2)NC(=O)[C@@H](N)CSSC[C@@H](C(=O)N2CCC[C@H]2C(=O)N[C@@H](CCCN=C(N)N)C(=O)NCC(N)=O)NC(=O)[C@H](CC(N)=O)NC1=O` [VASOPRESSIN], on Oxytocin receptor, the Ki was 1.17 nM (antagonist).
